The results in this text go back to patent US20190031665A1, “DERIVATIVES OF PYRROLOIMIDAZOLE OR ANALOGUES THEREOF WHICH ARE USEFUL FOR THE TREATMENT OF INTER ALIA CANCER” (EMCURE PHARMACEUTICALS LIMITED, priority 2016, published 2019).

Test [1] concerns the target T1, human tryptophan 2,3-dioxygenase (hTDO) (Homo sapiens, UniProt P48775).
T1 construct: His tag (N); purchased BPS Bioscience, San Diego, Calif., USA; host or cells: E. coli
Description: In-vitro human tryptophan 2,3-dioxygenase (TDO) enzyme assay. The format is biochemical. The following applies: for inhibition at 1 µM: hTDO enzyme at 1.0 μM concentration; for inhibition at 10 µM: hTDO enzyme at 10.0 μM concentration. On the procedure:
In the in-vitro human tryptophan 2,3-dioxygenase (hTDO) enzyme assay for screening inhibitor compounds, hTDO with an N-terminal histidine tag expressed and purified from E. coli (BPS Bioscience, San Diego, Calif., USA) was used. All other materials were procured from Sigma-Aldrich, St. Louis, Mo., USA.
The assay monitoring method for the conversion of L-tryptophan to N-formylkynurenine by hTDO was carried out as follows. hTDO (125 ng) was incubated in the presence of 200 μM L-tryptophan, 100 mM sodium phosphate buffer (pH 7.0), 0.01% Tween-20 and 100 μM ascorbic acid at about 37° C. for about 60 minutes. The reaction was terminated with 200 mM piperidine (PIP) and further incubated at about 65° C. for about 20 minutes to convert N-formylkynurenine (NFK) to NFK-PIP. The reaction mixture was then incubated at room temperature for about 75 minutes. The fluorescence intensity was read in a fluorescence microplate reader at an excitation wavelength of 400 nm and emission wavelength of 500 nm. Percent inhibition at each concentration of test compounds was determined by estimating the decrease in NFK-PIP. Data were analyzed using nonlinear regression to generate IC50 values using Graph Pad Prism® 6.

Test [2] deals with T2, human indoleamine 2,3-dioxygenase 1 (hIDO1) (Homo sapiens, UniProt P14902).
T2 construct: His tag (N); purchased BPS Bioscience, San Diego, Calif., USA; host or cells: E. coli
T2 sequence (P14902 whole entry): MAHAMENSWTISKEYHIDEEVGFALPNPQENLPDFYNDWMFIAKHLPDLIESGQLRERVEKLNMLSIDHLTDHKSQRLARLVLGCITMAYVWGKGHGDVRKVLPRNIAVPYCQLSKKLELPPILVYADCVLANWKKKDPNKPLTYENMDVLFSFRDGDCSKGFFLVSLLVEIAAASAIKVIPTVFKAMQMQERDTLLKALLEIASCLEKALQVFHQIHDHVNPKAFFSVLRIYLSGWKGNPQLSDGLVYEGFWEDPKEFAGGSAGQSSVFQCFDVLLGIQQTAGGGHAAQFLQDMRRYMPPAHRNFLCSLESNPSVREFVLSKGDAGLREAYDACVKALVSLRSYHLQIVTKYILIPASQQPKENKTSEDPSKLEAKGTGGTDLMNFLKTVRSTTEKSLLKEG
Description: In-vitro human indoleamine 2,3-dioxygenase 1 (IDO1) enzyme assay. Format: biochemical. The note with it: for IC50: hIDO1 enzyme; for inhibition at 1 µM: hIDO1 enzyme at 1.0 μM concentration; for inhibition at 10 µM: hIDO1 enzyme at 10.0 μM concentration. On the procedure:
In-vitro human indoleamine 2,3-dioxygenase 1 (IDO1) enzyme assay: In the in-vitro human indoleamine 2,3-dioxygenase 1 (hIDO1) enzyme assay for screening inhibitor compounds, hIDO1 with an N-terminal histidine tag expressed and purified from E. coli (BPS Bioscience, San Diego, Calif., USA) was used. All other materials were procured from Sigma-Aldrich, St. Louis, Mo., USA.
The assay method for monitoring the conversion of L-tryptophan to N-formylkynurenine by hlDO1 was carried out as follows. hlDO1 (50 ng) was incubated with tryptophan (80 μM) in the presence of ascorbic acid (10 mM), methylene blue (10 μM), catalase (100 μg/ml) and 0.01% Tween-20 in sodium phosphate buffer (50 mM; pH 6.5) at 37° C. for 60 min. The reaction was terminated with 200 mM piperidine (PIP) and further incubated at about 65° C. for about 20 minutes to convert N-formylkynurenine (NFK) to NFK-PIP. The reaction mixture was then incubated at room temperature for about 1 hour. The fluorescence intensity was read in a fluorescence microplate reader at an excitation wavelength of 400 nm and emission wavelength of 500 nm. Percent inhibition at each concentration of test compounds was determined by estimating the decrease in NFK-PIP. Data were analyzed using nonlinear regression to generate IC50 values using Graph Pad Prism® 6.

T1 sequence (P48775 whole entry): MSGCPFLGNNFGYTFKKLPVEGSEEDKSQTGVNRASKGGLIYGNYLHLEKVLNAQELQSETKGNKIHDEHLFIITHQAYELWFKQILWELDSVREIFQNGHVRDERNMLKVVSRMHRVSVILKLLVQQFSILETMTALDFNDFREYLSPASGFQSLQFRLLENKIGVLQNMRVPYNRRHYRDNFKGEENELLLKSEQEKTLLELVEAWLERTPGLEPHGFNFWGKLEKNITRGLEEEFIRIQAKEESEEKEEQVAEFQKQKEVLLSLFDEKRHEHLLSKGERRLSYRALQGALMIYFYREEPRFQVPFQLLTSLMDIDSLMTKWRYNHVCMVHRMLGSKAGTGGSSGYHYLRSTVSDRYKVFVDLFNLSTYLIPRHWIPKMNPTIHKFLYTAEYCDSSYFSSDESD

In test [1], `CC1=C(c2ccccc2)C(CC(=O)c2cccc(Cl)c2)n2cncc21` (centres unmarked) [Example 17, 1-(3-Chloro-phenyl)-2-(7-methyl-6-phenyl-5H-pyrrolo[1,2-c]imidazol-5-yl)-ethanone] registered an inhibition at 1 µM of at least 50% and an inhibition at 10 µM of at least 50%. Besides, in test [2], the concentration for half-maximal inhibition (IC50) was under 500 nM, the inhibition at 1 µM is at least 50% and the inhibition at 10 µM is at least 50%.
On to `COC(=O)c1ccc(C(=O)CC2C(c3ccccc3)=C(C)c3cncn32)cc1` (centres unmarked) [Example 18, 4-[2-(7-Methyl-6-phenyl-5H-pyrrolo[1,2-c]imidazol-5-yl)-acetyl]-benzoic acid methyl ester], for which, in test [1], the inhibition at 1 µM was at least 50% and the inhibition at 10 µM was at least 50%. In addition, in test [2], the IC50 was under 500 nM, the inhibition at 1 µM is at least 50% and the inhibition at 10 µM was at least 50%.
With `CC1=C(c2ccccc2)C(CC(O)c2cccc(Cl)c2)n2cncc21` (centres unmarked) [Example 19, 1-(3-Chloro-phenyl)-2-(7-methyl-6-phenyl-5H-pyrrolo[1,2-c]imidazol-5-yl)-ethanol], in test [1], the inhibition at 1 µM was at least 50% and the inhibition at 10 µM was at least 50%. In addition, in test [2], the IC50 is under 500 nM, the inhibition at 1 µM is at least 50% and the inhibition at 10 µM was at least 50%.
For `CC1=C(c2ccccc2)C(CC(=O)c2cccc(F)c2)n2cncc21` (centres unmarked) [Example 20, 1-(3-Fluoro-phenyl)-2-(7-methyl-6-phenyl-5H-pyrrolo[1,2-c]imidazol-5-yl)-ethanone], in test [1], the inhibition at 1 µM was at least 50% and the inhibition at 10 µM is at least 50%. In test [2], the IC50 is over 500 nM, the inhibition at 1 µM is at least 50% and the inhibition at 10 µM was at least 50%.
Take `CCOC(=O)CC1C(c2ccccc2)=C(C)c2cncn21` (centres unmarked) [Example 22]: in test [1], the inhibition at 10 µM is at least 50%. In test [2], this compound showed an inhibition at 1 µM of at most 50% and an inhibition at 10 µM of at least 50%.
As to `COC(=O)c1cccc(C(=O)CC2C(c3ccccc3)=C(C)c3cncn32)c1` (centres unmarked) [Example 23, 3-[2-(7-Methyl-6-phenyl-5H-pyrrolo[1,2-c]imidazol-5-yl)-acetyl]-benzoic acid methyl ester], in test [1], the inhibition at 1 µM was at least 50% and the inhibition at 10 µM is at least 50%. In addition, in test [2], the inhibition at 1 µM was at most 50% and the inhibition at 10 µM was at least 50%.
In test [1], `CC1=C(c2ccccc2)C(CC(=O)c2ccc(C(=O)O)cc2)n2cncc21` (centres unmarked) [Example 24, 4-[2-(7-Methyl-6-phenyl-5H-pyrrolo[1,2-c]imidazol-5-yl)-acetyl]-benzoic acid] displayed an inhibition at 1 µM of at least 50% and an inhibition at 10 µM of at least 50%. Further, in test [2], the inhibition at 1 µM is at most 50% and the inhibition at 10 µM was at least 50%.
As to `CC1=C(c2ccccc2)C(CC(=O)c2ccc3ccccc3c2)n2cncc21` (centres unmarked) [Example 25, 2-(7-Methyl-6-phenyl-5H-pyrrolo[1,2-c]imidazol-5-yl)-1-naphthalen-2-yl-ethanone], in test [1], the inhibition at 1 µM is at least 50% and the inhibition at 10 µM was at least 50%. Besides, in test [2], the IC50 is under 500 nM, the inhibition at 1 µM is at least 50% and the inhibition at 10 µM was at least 50%.
With `CC1=C(c2ccccc2)C(CC(=O)C2CC2)n2cncc21` (centres unmarked) [Example 26, 1-Cyclopropyl-2-(7-methyl-6-phenyl-5H-pyrrolo[1,2-c]imidazol-5-yl)-ethanone], the inhibition at 1 µM was at least 50% in test [1] and at most 50% in test [2]. Besides, the inhibition at 10 µM in test [1] and in test [2] was at least 50% throughout.
As to `CC1=C(c2ccccc2)C(CC(=O)c2ccc(C)cc2)n2cncc21` (centres unmarked) [Example 27, 2-(7-Methyl-6-phenyl-5H-pyrrolo[1,2-c]imidazol-5-yl)-1-p-tolyl-ethanone], in test [1], the inhibition at 1 µM was at least 50% and the inhibition at 10 µM was at least 50%. In test [2], this compound displayed an inhibition at 1 µM of at most 50% and an inhibition at 10 µM of at least 50%.
For the compound `CC1=C(c2ccccc2)C(CC(=O)c2ccc3c(c2)OCO3)n2cncc21` (centres unmarked) [Example 28, 1-Benzo[1,3]dioxol-5-yl-2-(7-methyl-6-phenyl-5H-pyrrolo[1,2-c]imidazol-5-yl)-ethanone], in test [1], the inhibition at 1 µM is at least 50% and the inhibition at 10 µM was at least 50%. Further, in test [2], the IC50 was under 500 nM, the inhibition at 1 µM is at least 50% and the inhibition at 10 µM is at least 50%.
Consider `CC1=C(c2ccccc2)C(CC(=O)c2cccc(C(F)(F)F)c2)n2cncc21` (centres unmarked) [Example 29, 2-(7-Methyl-6-phenyl-5H-pyrrolo[1,2-c]imidazol-5-yl)-1-(3-trifluoromethyl-phenyl)-ethanone], for which, in test [1], the inhibition at 1 µM was at least 50% and the inhibition at 10 µM is at least 50%. In addition, in test [2], the 50% inhibitory concentration (IC50) was under 500 nM, the inhibition at 1 µM is at least 50% and the inhibition at 10 µM was at least 50%.
On to `COc1ccccc1C(=O)CC1C(c2ccccc2)=C(C)c2cncn21` (centres unmarked) [Example 32, 1-(2-methoxyphenyl)-2-(7-methyl-6-phenyl-5H-pyrrolo[1,2-c]imidazol-5-yl)ethan-1-one], for which the inhibition at 10 µM in test [1] is at least 50%. In test [2], this compound registered an inhibition at 1 µM of at most 50% and an inhibition at 10 µM of at most 50%.
In test [1], `COc1cccc(C(=O)CC2C(c3ccccc3)=C(C)c3cncn32)c1` (centres unmarked) [Example 33, 1-(3-Methoxy-phenyl)-2-(7-methyl-6-phenyl-5H-pyrrolo[1,2-c]imidazol-5-yl)-ethanone] came in with an inhibition at 10 µM of at least 50%. In test [2], this compound showed an inhibition at 1 µM of at most 50% and an inhibition at 10 µM of at least 50%.
In test [1], `CC1=C(c2ccccc2)C(CC(=O)c2ccc(F)cc2)n2cncc21` (centres unmarked) [Example 34, 1-(4-fluorophenyl)-2-(7-methyl-6-phenyl-5H-pyrrolo[1,2-c]imidazol-5-yl)ethan-1-one] registered an inhibition at 1 µM of at least 50% and an inhibition at 10 µM of at least 50%. In test [2], this compound yielded an inhibition at 1 µM of at least 50% and an inhibition at 10 µM of at least 50%.
With `CC1=C(c2ccccc2)C(CC(O)c2ccc(F)cc2)n2cncc21` (centres unmarked) [Example 35, 1-(4-fluorophenyl)-2-(7-methyl-6-phenyl-5H-pyrrolo[1,2-c]imidazol-5-yl)ethan-1-ol], the inhibition at 1 µM in test [1] was at least 50%; in test [2], at most 50%. Also, the inhibition at 10 µM in test [2] is at least 50%.
As to `CC1=C(c2ccccc2)C(CC(=O)c2cc(F)ccc2F)n2cncc21` (centres unmarked) [Example 36, 1-(2,5-difluorophenyl)-2-(7-methyl-6-phenyl-5H-pyrrolo[1,2-c]imidazol-5-yl)ethan-1-one], in test [1], the inhibition at 1 µM was at least 50% and the inhibition at 10 µM is at least 50%. In test [2], this compound came in with an inhibition at 1 µM of at least 50% and an inhibition at 10 µM of at least 50%.
In the case of `COc1ccc(C(=O)CC2C(c3ccccc3)=C(C)c3cncn32)cc1` (centres unmarked) [Example 37, 1-(4-methoxyphenyl)-2-(7-methyl-6-phenyl-5H-pyrrolo[1,2-c]imidazol-5-yl)ethan-1-one], in test [1], the inhibition at 1 µM is at least 50%. In test [2], this compound yielded an IC50 of under 500 nM, an inhibition at 1 µM of at least 50% and an inhibition at 10 µM of at least 50%.
In test [1], `CC1=C(c2ccccc2)C(CC(=O)c2ccc(Cl)cc2)n2cncc21` (centres unmarked) [Example 38, 1-(4-chlorophenyl)-2-(7-methyl-6-phenyl-5H-pyrrolo[1,2-c]imidazol-5-yl)ethan-1-one] came in with an inhibition at 1 µM of at least 50%. In addition, in test [2], the IC50 is under 500 nM, the inhibition at 1 µM was at least 50% and the inhibition at 10 µM was at least 50%.
`CC1=C(c2ccccc2)C(CC(=O)c2ccc(F)c(Cl)c2)n2cncc21` (centres unmarked) [Example 39, 1-(3-chloro-4-fluorophenyl)-2-(7-methyl-6-phenyl-5H-pyrrolo[1,2-c]imidazol-5-yl)ethan-1-one] gave an inhibition at 1 µM in test [1] of at least 50%. In test [2], this compound had an IC50 of under 500 nM, an inhibition at 1 µM of at least 50% and an inhibition at 10 µM of at least 50%.
In turn, `CC1=C(c2ccccc2)C(CC(=O)c2cccc3ccccc23)n2cncc21` (centres unmarked) [Example 40, 2-(7-methyl-6-phenyl-5H-pyrrolo[1,2-c]imidazol-5-yl)-1-(naphthalen-1-yl)ethan-1-one] showed an inhibition at 1 µM in test [1] of at least 50%. In test [2], this compound gave an inhibition at 1 µM of at least 50% and an inhibition at 10 µM of at least 50%.
